Measured values reported in patent US12495798B2, “Nicotinamide compound and herbicidal composition comprising compound” (KOREA RESEARCH INSTITUTE OF CHEMICAL TECHNOLOGY, priority 2019, dated 2025).

Experiments:
Type in all cases: in vivo
[1] = system: quack grass; test: Herbicidal activity test against upland field weeds (foliar treatment test); design: key to Foliar treatment herbicidal activity, quack grass: 0 (no control); 100 (complete control); conditions: 50 g ai/ha, scale 0-100
How it was run: (§1)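 Visual 0–100 control ratings relative to untreated plants, taken 14 (or 21) days after spraying foliage at 50 or 75 g a.i./ha. Spray solution: 50% acetone with 0.1% Tween-20; plants kept in greenhouse at 30±5 °C, 14 h light/10 h dark.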

[2] = system: crabgrass; test: as above; design: key to Foliar treatment herbicidal activity, Crabgrass: 0 (no control); 100 (complete control); conditions: 50 g ai/ha, scale 0-100; for pest or weed control at 50 g/ha: Digitaria sanguinalis
How it was run: as §1

[3] = system: fall panicum; test: as above; conditions: 50 g ai/ha, scale 0-100; for pest or weed control at 50 g/ha: Panicum dichotomiflorum
How it was run: as §1

[4] = system: black nightshade; test: as above; design: key to Foliar treatment herbicidal activity, black nightshade: 0 (no control); 100 (complete control); conditions: 50 g ai/ha, scale 0-100
How it was run: as §1

[5] = system: velvetleaf; test: as above; design: key to Foliar treatment herbicidal activity, velvet leaf: 0 (no control); 100 (complete control); conditions: 50 g ai/ha; for pest or weed control at 50 g/ha: Abutilon theophrasti, scale 0-100, read-out: Foliar treatment herbicidal activity, velvet leaf; for Foliar treatment herbicidal activity, velvet leaf: scale 0-100
How it was run: as §1

[6] = system: fall panicum; test: Herbicidal activity test against upland field weeds (soil treatment test); design: key to Soil treatment herbicidal activity, Fall panicum: 0 (no control); 100 (complete control); conditions: 50 g ai/ha, scale 0 (no control) to 100 (complete control)
How it was run: (§2)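 Weed control scored visually on a 0 (none) to 100 (complete) scale versus untreated pots at 14 or 21 days in greenhouse (30±5 °C, 14 h light). Test compounds, 50 or 75 g a.i./ha in 50% acetone/0.1% Tween-20, hand-sprayed onto soil one day post-sowing.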

[7] = system: cocklebur; test: as above; design: key to Soil treatment herbicidal activity, Cocklebur: 0 (no control); 100 (complete control); conditions: 50 g ai/ha, scale 0 (no control) to 100 (complete control)
How it was run: as §2

[8] = system: corn; test: Phytotoxicity test for field crops (soil treatment test); design: key: 0 (no harm); 9 (complete withered)
Experimental: (§3) Experimental Example 4: Phytotoxicity Test for Field Crops (Soil Treatment Test)
(§4) Soil treatment was performed for sown crops and weeds in a square plastic pot having a surface area of 50 cm^2 filled with sterilized horticultural soil (pH 6.1, organic material 1.0%, clay 21%, silt 17%, sand 52%). As a fertilizer per pot, 0.5 g of horticultural mixed fertilizer (N:P:K=17:21:17) was treated by mixing with soil. Five kinds of crops such as rice, wheat, corn, soybean, and cotton were sown in each pot. One day after sowing, test compound solutions were made by diluting with the diluent (33% acetone, 0.1% Tween-20) so that the final treatment amount of the test compounds was 19˜300 g a.i./ha. The prepared test compound solutions were treated using a spray booth (SB6-016) at a treatment amount of 100 ml per 1 m^2 of treatment area. The treated crops were managed in greenhouse conditions (average temperature 30±5° C., light/dark=14/10 hours). External symptoms and phytotoxicity were visually investigated 10 and 20 days after treatment. In the evaluation of the phytotoxicity for the crop, the grade of 0 (no harm) to 9 (complete withered) was used. The results of Table 10 were obtained by evaluating phytotoxicity value to the untreated control.

[9] = system: cotton; test: as above; design: key: 0 (no harm); 9 (complete withered)
Experimental: as §3, §4

[10] = system: rice; test: as above; design: key: 0 (no harm); 9 (complete withered)
Experimental: as §3, §4

[11] = system: soybean; test: as above; design: key: 0 (no harm); 9 (complete withered)
Experimental: as §3, §4

[12] = system: wheat; test: as above; design: key: 0 (no harm); 9 (complete withered)
Experimental: as §3, §4

[13] = system: crabgrass; test: Herbicidal activity test against upland field weeds (soil treatment test); design: key to Soil treatment herbicidal activity, Crabgrass: 0 (no control); 100 (complete control); conditions: 50 g ai/ha, scale 0 (no control) to 100 (complete control)
How it was run: as §2

[14] = 50 g ai/ha, Corn (10 days after treatment)
[15] = 50 g ai/ha, Corn (20 days after treatment)
[16] = 100 g ai/ha, Corn (10 days after treatment)
[17] = 100 g ai/ha, Corn (20 days after treatment)
[18] = 50 g ai/ha, Cotton (10 days after treatment)
[19] = 50 g ai/ha, Cotton (20 days after treatment)
[20] = 100 g ai/ha, Cotton (10 days after treatment)
[21] = 100 g ai/ha, Cotton (20 days after treatment)
[22] = 50 g ai/ha, Rice (10 days after treatment)
[23] = 50 g ai/ha, Rice (20 days after treatment)
[24] = 100 g ai/ha, Rice (10 days after treatment)
[25] = 100 g ai/ha, Rice (20 days after treatment)
[26] = 50 g ai/ha, Soybean (10 days after treatment)
[27] = 100 g ai/ha, Soybean (20 days after treatment)
[28] = 50 g ai/ha, Wheat (10 days after treatment)
[29] = 50 g ai/ha, Wheat (20 days after treatment)
[30] = 100 g ai/ha, Wheat (10 days after treatment)
[31] = 100 g ai/ha, Wheat (20 days after treatment)
[32] = 50 g ai/ha, Soybean (20 days after treatment)

Compound | Foliar treatment herbicidal activity, quack grass [1] | pest or weed control at 50 g/ha [2] [%] | pest or weed control at 50 g/ha [3] [%] | Foliar treatment herbicidal activity, black nightshade [4] | pest or weed control at 50 g/ha [5] [%] | Soil treatment herbicidal activity, Cocklebur [7] | Soil treatment phytotoxicity, Corn [8, 14] | Soil treatment phytotoxicity, Corn [8, 15] | Soil treatment phytotoxicity, Corn [8, 16] | Soil treatment phytotoxicity, Corn [8, 17] | Soil treatment phytotoxicity, Cotton [9, 18] | Soil treatment phytotoxicity, Cotton [9, 19] | Soil treatment phytotoxicity, Cotton [9, 20] | Soil treatment phytotoxicity, Cotton [9, 21] | Soil treatment phytotoxicity, Rice [10, 22] | Soil treatment phytotoxicity, Rice [10, 23] | Soil treatment phytotoxicity, Rice [10, 24] | Foliar treatment herbicidal activity, Crabgrass [2] | Soil treatment herbicidal activity, Crabgrass [13] | Soil treatment herbicidal activity, Fall panicum [6] | further results
Cn1nnnc1NC(=O)c1ccc(C(F)(F)F)nc1OCc1nnnn1C(F)F [Compound No. 1-26, 2-((1-(difluoromethyl)-1H-tetrazol-5-yl)methoxy)-N-(1-methyl-1H-tetrazol-5-yl)-6-(trifluoromethyl)nicotinamide] | 0 | 98 | 98 | 100 | 50 | 0 | 0 | 0 | 1 | 1 | 1 | 0 | 1 | 1 | 1 | 8 | 3 |  |  |  | pest or weed control at 50 g/ha ([6]; Panicum dichotomiflorum): 60%; Soil treatment phytotoxicity, Rice [10, 25]: 9; Soil treatment phytotoxicity, Soybean [11, 26]: 0; Soil treatment phytotoxicity, Soybean ([11]; 100 g ai/ha, Soybean (10 days after treatment)): 0; Soil treatment phytotoxicity, Soybean [11, 27]: 4; Soil treatment phytotoxicity, Wheat [12, 28]: 0; Soil treatment phytotoxicity, Wheat [12, 29]: 0; Soil treatment phytotoxicity, Wheat [12, 30]: 0; Soil treatment phytotoxicity, Wheat [12, 31]: 0
Cn1nnc(CSCc2nc(C(F)(F)F)ccc2C(=O)Nc2nnnn2C)n1 [Compound No. 2-102, N-(1-methyl-1H-tetrazol-5-yl)-2-((((2-methyl-2H-tetrazol-5-yl)methyl)thio)methyl)-6-(trifluoromethyl)nicotinamide] | 0 |  | 80 | 100 | 80 |  |  |  |  |  |  |  |  |  |  |  |  | 100 | 100 | 100 | 
Cn1nnc(CS(=O)(=O)Cc2nc(C(F)(F)F)ccc2C(=O)Nc2nnnn2C)n1 [Compound No. 2-105, N-(1-methyl-1H-tetrazol-5-yl)-2-((((2-methyl-2H-tetrazol-5-yl)methyl)sulfonyl)methyl)-6-(trifluoromethyl)nicotinamide] | 0 | 30 | 50 | 100 | 90 |  |  |  |  |  |  |  |  |  |  |  |  |  | 0 | 0 | pest or weed control at 50 g/ha ([7]; Xanthium strumarium): 98%
COc1nc(COCc2nc(C(F)(F)F)ccc2C(=O)Nc2nnnn2C)nn1C [Compound No. 2-129, 2-(((5-methoxy-1-methyl-1H-1,2,4-triazol-3-yl)methoxy)methyl)-N-(1-methyl-1H-tetrazol-5-yl)-6-(trifluoromethyl)nicotinamide] | 0 | 70 | 50 | 100 | 70 |  | 0 | 0 | 0 | 0 | 0 | 0 | 1 | 5 | 5 | 6 | 5 |  | 0 | 0 | Soil treatment phytotoxicity, Rice [10, 25]: 7; Soil treatment phytotoxicity, Soybean [11, 26]: 0; Soil treatment phytotoxicity, Soybean [11, 32]: 0; Soil treatment phytotoxicity, Wheat [12, 28]: 0; Soil treatment phytotoxicity, Wheat [12, 29]: 0; Soil treatment phytotoxicity, Wheat [12, 30]: 0; Soil treatment phytotoxicity, Wheat [12, 31]: 0
COC(=O)OC(C)N(C(=O)c1ccc(C(F)(F)F)nc1COCc1nnn(C)n1)c1nnnn1C (stereo not shown) [Compound No. 4-4, methyl(1-(N-(1-methyl-1H-tetrazol-5-yl)-2-(((2-methyl-2H-tetrazol-5-yl)methoxy)methyl)-6-(trifluoromethyl)nicotinamido)ethyl)carbonate] | 0 |  |  | 100 |  | 0 |  |  |  |  |  |  |  |  |  |  |  | 98 | 0 |  | Foliar treatment herbicidal activity, Fall panicum [3]: 98; Foliar treatment herbicidal activity, velvet leaf [5]: 100
CCOC(=O)OC(C)N(C(=O)c1ccc(C(F)(F)F)nc1COCc1nnn(C)n1)c1nnnn1C (stereo not shown) [Compound No. 4-8, ethyl(1-(N-(1-methyl-1H-tetrazol-5-yl)-2-(((2-methyl-2H-tetrazol-5-yl)methoxy)methyl)-6-(trifluoromethyl)nicotinamido)ethyl)carbonate] | 0 |  |  | 100 |  | 0 |  |  |  |  |  |  |  |  |  |  |  | 98 | 100 | 0 | Foliar treatment herbicidal activity, Fall panicum [3]: 80; Foliar treatment herbicidal activity, velvet leaf [5]: 100
CCOC(=O)OC(C)n1nnn(C)c1=NC(=O)c1ccc(C(F)(F)F)nc1CSCc1nnn(C)n1 (stereo not shown) [Compound No. 4-10, ethyl (1-(4-methyl-5-((2-((((2-methyl-2H-tetrazol-5-yl)methyl)thio)methyl)-6-(trifluoromethyl)nicotinoyl)imino)-4,5-dihydro-1H-tetrazol-1-yl)ethyl)carbonate] | 0 |  |  | 100 |  |  | 0 | 0 | 0 | 0 | 0 | 1 | 0 | 2 | 0 | 0 | 0 | 100 | 100 | 40 | Foliar treatment herbicidal activity, Fall panicum [3]: 95; Foliar treatment herbicidal activity, velvet leaf [5]: 100; Soil treatment phytotoxicity, Rice [10, 25]: 0; Soil treatment phytotoxicity, Soybean [11, 32]: 1; Soil treatment phytotoxicity, Soybean [11, 27]: 3; Soil treatment phytotoxicity, Wheat [12, 28]: 0; Soil treatment phytotoxicity, Wheat [12, 29]: 0; Soil treatment phytotoxicity, Wheat [12, 30]: 0; Soil treatment phytotoxicity, Wheat [12, 31]: 0
